We go through 35 molecules from patent US20230083973A1, “SUBSTITUTED CYCLOPROPYL-2,2'-BIP[…], ANALOGUES THEREOF, AND METHODS USING SAME” (priority 2019, published 2023).

One experiment relates to HBsAg. The experiment can be described thus: HBsAg assay: inhibition of HBsAg in HepG2.2.15 cells (chemiluminescence immunoassay of supernatant). The conditions noted are these: Hepatitis B virus, HepG2.2.15, 144 h, read-out: sAg EC50, HepG2.2.15 cells; HBsAg in supernatant at day 6 after exposure to compound; 0.5% DMSO. Type of experiment: cell-based, hepatitis B virus. In a few lines:
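HepG2.2.15 cells treated with serially diluted compounds (0.5% DMSO), medium and compound refreshed after 2–3 days, supernatant harvested at day 6. Secreted HBsAg measured by chemiluminescence immunoassay; EC50 from dose-response curves, with parallel CellTiter-Glo viability at 5,000 cells/well.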
Consider `Fc1cc([C@@H]2C[C@H]2c2cnc(-c3ncccn3)nc2)cc(OC2CC3(COC3)C2)c1F` (relative stereo) [Example 243, trans-5-(2-(3-((2-Oxaspiro[3.3]heptan-6-yl)oxy)-4,5-difluorophenyl)cyclopropyl)-2,2′-bipyrimidine], for which the EC50 is 110 nM.

Turning to `COCc1cnn(-c2cc([C@@H]3C[C@H]3c3cnc(-c4ncccn4)nc3)cc(F)c2F)c1` (relative stereo) [Example 236, trans-5-(2-(3,4-Difluoro-5-(4-(methoxymethyl)-1H-pyrazol-1-yl)phenyl)cyclopropyl)-2,2′-bipyrimidine], the EC50 is 78 nM.

On to `COCCCn1cc2c([C@@H]3C[C@H]3c3cnc(-c4ncccn4)nc3)ccc(F)c2n1` (relative stereo) [Example 277, trans-4-(2-([2,2′-Bipyrimidin]-5-yl)cyclopropyl)-7-fluoro-2-(3-methoxypropyl)-2H-indazole], for which the EC50 came out at 30 nM.

In the case of `c1cnc(-c2ncc([C@@H]3C[C@H]3c3cccc4ccccc34)cn2)nc1` (relative stereo) [Example 166, trans-5-(2-(Naphthalen-1-yl)cyclopropyl)-2,2′-bipyrimidine], the EC50 worked out at 65 nM.

Regarding `COc1cc(OC(F)(F)F)cc([C@@H]2C[C@H]2c2cnc(-c3ncccn3)nc2)c1` (relative stereo) [Example 164, trans-5-(2-(3-Methoxy-5-(trifluoromethoxy)phenyl)cyclopropyl)-2,2′-bipyrimidine], the EC50 turned out to be 480 nM.

On to `COc1cc([C@@H]2C[C@H]2c2cnc(-c3ccncn3)nc2)cc(F)c1F` (relative stereo) [Example 177, trans-5-(2-(3,4-Difluoro-5-methoxyphenyl)cyclopropyl)-2,4′-bipyrimidine], for which the EC50 stood at 360 nM.

Turning to `Fc1ccc([C@@H]2C[C@H]2c2cnc(-c3ncccn3)nc2)c2ccccc12` (relative stereo) [Example 168, trans-5-(2-(4-Fluoronaphthalen-1-yl)cyclopropyl)-2,2′-bipyrimidine], the concentration for a half-maximal effect (EC50) came to 36 nM.

Consider `O[C@@H]1CCN(c2cc(C3CC3c3cnc(-c4ncccn4)nc3)cc(F)c2F)C1` (single isomer, unassigned) [Example 104], for which the EC50 was determined as 78 nM.

Turning to `COCCCn1cc2c(F)cc([C@@H]3C[C@H]3c3cnc(-c4ncccn4)nc3)cc2n1` (relative stereo) [Example 267, trans-6-(2-([2,2′-Bipyrimidin]-5-yl)cyclopropyl)-4-fluoro-2-(3-methoxypropyl)-2H-indazole], the EC50 is 13 nM.

As for `COc1cc(C2CC2c2cnc(-c3ncccn3)nc2)cnc1OC` (single isomer, unassigned) [Example 183, trans-5-(2-(5,6-Dimethoxypyridin-3-yl)cyclopropyl)-2,2′-bipyrimidine], the EC50 is 910 nM.

Staying with this experiment, now noted: read-out: sAg EC50; HepG2.2.15 cells; HBsAg in supernatant at day 6 after exposure to compound; 0.5% DMSO.
`COc1cc(C2CC2c2ccc(-c3ncccn3)nc2)cc(F)c1F` (single isomer, unassigned) [Example 124, trans-2-(5-(2-(3,4-Difluoro-5-methoxyphenyl)cyclopropyl)pyridin-2-yl)pyrimidine]: the EC50 came out at 290 nM.

`COc1cnn(-c2cc(C3CC3c3cnc(-c4ncccn4)nc3)cc(F)c2F)c1` (single isomer, unassigned) [Example 252, trans-5-(2-(3,4-Difluoro-5-(4-methoxy-1H-pyrazol-1-yl)phenyl)cyclopropyl)-2,2′-bipyrimidine]: the EC50 is 14 nM.

On to `CS(=O)(=O)N1CCN(c2cc(C3CC3c3cnc(-c4ncccn4)nc3)ccc2F)CC1` (single isomer, unassigned) [Example 41, trans-5-(2-(4-Fluoro-3-(4-(methylsulfonyl)piperazin-1-yl)phenyl)cyclopropyl)-2,2′-bipyrimidine], for which the EC50 was 4000 nM.

For the molecule `COCCOc1cc(C2CC2c2cnc(-c3ncccn3)nc2)cc(F)c1F` (single isomer, unassigned) [Example 134, trans-5-(2-(3,4-Difluoro-5-(2-methoxyethoxy)phenyl)cyclopropyl)-2,2′-bipyrimidine], the EC50 was 300 nM.

With `COCCCOc1cc(F)c(Cl)cc1C1CC1c1cnc(-c2ncccn2)nc1` (single isomer, unassigned) [Example 155, trans-5-(2-(5-Chloro-4-fluoro-2-(3-methoxypropoxy)phenyl)cyclopropyl)-2,2′-bipyrimidine], the EC50 was 3000 nM.

Turning to `COc1cc(C2CC2c2cnc(-c3ncccn3)nc2)c(C)cc1Cl` (single isomer, unassigned) [Example 51, trans-5-(2-(4-Chloro-5-methoxy-2-methylphenyl)cyclopropyl)-2,2′-bipyrimidine], the EC50 is 290 nM.

`CN1CC[C@H](Nc2cc(C3CC3c3cnc(-c4ncccn4)nc3)cc(F)c2F)C1` (single isomer, unassigned) [Example 228]: the EC50 is 15000 nM.

With `Fc1cc(C2CC2c2cnc(-c3ncccn3)nc2)cc(N2CC(c3ccccc3)C2)c1F` (single isomer, unassigned) [Example 256, trans-5-(2-(3,4-Difluoro-5-(3-phenylazetidin-1-yl)phenyl)cyclopropyl)-2,2′-bipyrimidine], the EC50 was 28 nM.

In the case of `CO[C@@H]1CCN(c2cc(C3CC3c3cnc(-c4ncccn4)nc3)cc(F)c2F)C1` (single isomer, unassigned) [Example 96], the EC50 was found to be 93 nM.

For `COc1cc(C2CC2c2cnc(-c3ncccn3)nc2)ccc1Cl` (single isomer, unassigned) [Example 34, trans-5-(2-(4-Chloro-3-methoxyphenyl)cyclopropyl)-2,2′-bipyrimidine], the 50% effective concentration (EC50) turned out to be 150 nM.

On to `Fc1cc(C2CC2c2cnc(-c3ncccn3)nc2)cc(OC2CCCC2)c1F` (single isomer, unassigned) [Example 245, trans-5-(2-(3-(Cyclopentyloxy)-4,5-difluorophenyl)cyclopropyl)-2,2′-bipyrimidine], for which the EC50 stood at 5000 nM.

Take `Fc1ccc(C2CC2c2cnc(-c3ncccn3)nc2)cc1OCC1CC1` (single isomer, unassigned) [Example 26, trans-5-(2-(3-(Cyclopropylmethoxy)-4-fluorophenyl)cyclopropyl)-2,2′-bipyrimidine]: the EC50 was found to be 29 nM.

`COCCCn1cc2c(F)cc(C3CC3c3cnc(-c4ncccn4)nc3)cc2n1` (single isomer, unassigned) [Example 268, trans-6-(2-([2,2′-Bipyrimidin]-5-yl)cyclopropyl)-4-fluoro-2-(3-methoxypropyl)-2H-indazole]: the EC50 was found to be 10 nM.

In the case of `COc1cc(C2CC2c2cnc(-c3ncccn3)nc2)cc(F)c1Cl` (single isomer, unassigned) [Example 46, trans-5-(2-(4-Chloro-3-fluoro-5-methoxyphenyl)cyclopropyl)-2,2′-bipyrimidine], the EC50 stood at 35 nM.

`Fc1ccc(C2CC2c2cnc(-c3ncccn3)nc2)cc1OC(F)F` (single isomer, unassigned) [Example 186, trans-5-(2-(3-(Difluoromethoxy)-4-fluorophenyl)cyclopropyl)-2,2′-bipyrimidine]: the EC50 was found to be 1600 nM.

As for `COc1c(Cl)ccc(C2CC2c2cnc(-c3ncccn3)nc2)c1OC` (single isomer, unassigned) [Example 114, trans-5-(2-(4-Chloro-2,3-dimethoxyphenyl)cyclopropyl)-2,2′-bipyrimidine], the 50% effective concentration (EC50) stood at 3000 nM.

As for `COCCCn1cc2c(F)cc(C3CC3c3cnc(-c4ncccn4)nc3)cc2n1` (single isomer, unassigned) [Example 269, trans-6-(2-([2,2′-Bipyrimidin]-5-yl)cyclopropyl)-4-fluoro-2-(3-methoxypropyl)-2H-indazole], the half-maximal effective concentration (EC50) came out at 46 nM.

Take `CO[C@@H]1CCN(c2cc(C3CC3c3cnc(-c4ncccn4)nc3)cc(F)c2F)C1` (single isomer, unassigned) [Example 97]: the EC50 was found to be 14 nM.

In the case of `Cc1c(C2CC2c2cnc(-c3ncccn3)nc2)ccc(Cl)c1OCC1CC1` (single isomer, unassigned) [Example 62, trans-5-(2-(4-Chloro-3-(cyclopropylmethoxy)-2-methylphenyl)cyclopropyl)-2,2′-bipyrimidine], the EC50 is 49000 nM.

On to `Fc1cc(C2CC2c2cnc(-c3ncccn3)nc2)cc(-n2ccnc2)c1F` (single isomer, unassigned) [Example 182, trans-5-(2-(3,4-Difluoro-5-(1H-imidazol-1-yl)phenyl)cyclopropyl)-2,2′-bipyrimidine], for which the EC50 amounted to 64 nM.

Take `COc1c(Cl)ccc(C2CC2c2cnc(-c3ncccn3)nc2)c1Cl` (single isomer, unassigned) [Example 133, trans-5-(2-(2,4-Dichloro-3-methoxyphenyl)cyclopropyl)-2,2′-bipyrimidine]: the EC50 is 130 nM.

For the molecule `Fc1ccc(C2CC2c2cnc(-c3ncccn3)nc2)cc1OC(F)(F)F` (single isomer, unassigned) [Example 39, trans-5-(2-(4-Fluoro-3-(trifluoromethoxy)phenyl)cyclopropyl)-2,2′-bipyrimidine], the EC50 was determined as 2000 nM.

With `CN1CC[C@@H](Nc2cc(C3CC3c3cnc(-c4ncccn4)nc3)cc(F)c2F)C1` (single isomer, unassigned) [Example 230], the EC50 was 7000 nM.

`COc1cc(C2CC2c2cnc(-c3ncccn3)nc2)cc(N2CCCC2)c1F` (single isomer, unassigned) [Example 100, trans-5-(2-(4-Fluoro-3-methoxy-5-(pyrrolidin-1-yl)phenyl)cyclopropyl)-2,2′-bipyrimidine]: the EC50 came out at 61 nM.

For the molecule `Fc1ccc(C2CC2c2cnc(-c3ncccn3)nc2)cc1OCC(F)F` (single isomer, unassigned) [Example 28, trans-5-(2-(3-(2,2-Difluoroethoxy)-4-fluorophenyl)cyclopropyl)-2,2′-bipyrimidine], the EC50 came out at 56 nM.

The EC50 is the midpoint of the concentration-response curve.
